Assay results published in ChEMBL document CHEMBL1201862, “PubChem BioAssay data set” (2004).
The source made the active and inactive calls.

Key:
[1] = target: T1, Small ubiquitin-related modifier 1 (Homo sapiens, UniProt P63165); assay: inhibitors of SUMO1 partner interactions, dose response, biochemical, FRET (AID 624383); format: functional; settings: read-out: IC50_Mean
[2] = target: T1, Small ubiquitin-related modifier 1; assay: inhibitors of SUMO1 peptide binding, dose response, biochemical, fluorescence polarization, uHTS hits (AID 624382); format: functional; settings: read-out: IC50_Mean
[3] = CRF-BP/CRF-R2 complex antagonists, dose response, cell-based, uHTS hits, 384-well (AID 651639); format: functional, Homo sapiens; settings: read-out: IC50_Mean
[4] = target: T2, Corticotropin-releasing factor receptor 2/Corticotropin-releasing factor-binding protein (Homo sapiens, UniProt P24387+Q13324); assay: activators of CRF receptor 2 with binding protein – uHTS hits, confirmation (AID 602473); format: functional; settings: read-out: EC50_Mean
T2 sequence (Q13324 whole entry): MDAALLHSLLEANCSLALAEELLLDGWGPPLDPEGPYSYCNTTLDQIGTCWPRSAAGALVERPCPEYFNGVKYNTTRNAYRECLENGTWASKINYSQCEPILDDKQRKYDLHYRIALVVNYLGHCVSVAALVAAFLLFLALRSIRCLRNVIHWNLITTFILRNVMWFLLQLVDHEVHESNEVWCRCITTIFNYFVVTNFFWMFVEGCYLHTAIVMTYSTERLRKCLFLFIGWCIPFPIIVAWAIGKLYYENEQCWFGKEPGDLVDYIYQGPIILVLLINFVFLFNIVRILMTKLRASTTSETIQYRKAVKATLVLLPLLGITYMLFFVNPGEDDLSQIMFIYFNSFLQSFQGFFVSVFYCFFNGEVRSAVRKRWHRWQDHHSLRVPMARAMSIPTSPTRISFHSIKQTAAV
T2 sequence (P24387 whole entry): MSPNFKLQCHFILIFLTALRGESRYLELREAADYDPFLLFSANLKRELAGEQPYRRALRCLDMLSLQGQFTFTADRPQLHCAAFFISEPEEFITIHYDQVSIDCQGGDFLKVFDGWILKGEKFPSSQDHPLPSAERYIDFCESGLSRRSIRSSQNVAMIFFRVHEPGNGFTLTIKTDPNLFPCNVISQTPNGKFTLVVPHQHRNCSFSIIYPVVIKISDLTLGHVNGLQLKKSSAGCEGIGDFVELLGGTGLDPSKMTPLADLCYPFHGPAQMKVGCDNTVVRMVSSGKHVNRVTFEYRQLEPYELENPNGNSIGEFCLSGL

[5] = target: T2, Corticotropin-releasing factor receptor 2/Corticotropin-releasing factor-binding protein; assay: Dose Response confirmation of uHTS hits for small molecule antagonists of the CRF-binding protein and CRF-R2 receptor complex.; format: functional; settings: read-out: IC50_Mean
[6] = target: Cytochrome P450 2C9 (Homo sapiens, UniProt P11712)
Cytochrome P450 2C9, sequence (P11712 whole entry): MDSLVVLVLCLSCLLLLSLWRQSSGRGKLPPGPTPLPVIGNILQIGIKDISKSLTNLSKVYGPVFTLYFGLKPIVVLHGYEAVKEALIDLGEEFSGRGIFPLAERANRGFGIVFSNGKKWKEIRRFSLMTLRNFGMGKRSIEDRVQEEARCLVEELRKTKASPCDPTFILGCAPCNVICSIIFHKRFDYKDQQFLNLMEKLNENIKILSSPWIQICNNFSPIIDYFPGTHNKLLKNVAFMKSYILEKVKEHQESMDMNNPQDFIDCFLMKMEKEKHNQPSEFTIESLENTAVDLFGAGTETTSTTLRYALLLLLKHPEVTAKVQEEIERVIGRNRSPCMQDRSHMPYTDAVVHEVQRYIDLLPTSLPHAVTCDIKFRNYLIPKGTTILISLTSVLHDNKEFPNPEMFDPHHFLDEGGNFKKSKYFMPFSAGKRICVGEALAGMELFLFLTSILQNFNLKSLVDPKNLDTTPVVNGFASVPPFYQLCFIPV

[7] = target: Glucose-6-phosphate 1-dehydrogenase (Homo sapiens, UniProt P11413); assay: human G6PD enzyme inhibitors, dose response, selectivity assay for P. falciparum G6PD inhibitor project, biochemical, fluorescence (AID 504792); format: functional
Glucose-6-phosphate 1-dehydrogenase, sequence (P11413 whole entry): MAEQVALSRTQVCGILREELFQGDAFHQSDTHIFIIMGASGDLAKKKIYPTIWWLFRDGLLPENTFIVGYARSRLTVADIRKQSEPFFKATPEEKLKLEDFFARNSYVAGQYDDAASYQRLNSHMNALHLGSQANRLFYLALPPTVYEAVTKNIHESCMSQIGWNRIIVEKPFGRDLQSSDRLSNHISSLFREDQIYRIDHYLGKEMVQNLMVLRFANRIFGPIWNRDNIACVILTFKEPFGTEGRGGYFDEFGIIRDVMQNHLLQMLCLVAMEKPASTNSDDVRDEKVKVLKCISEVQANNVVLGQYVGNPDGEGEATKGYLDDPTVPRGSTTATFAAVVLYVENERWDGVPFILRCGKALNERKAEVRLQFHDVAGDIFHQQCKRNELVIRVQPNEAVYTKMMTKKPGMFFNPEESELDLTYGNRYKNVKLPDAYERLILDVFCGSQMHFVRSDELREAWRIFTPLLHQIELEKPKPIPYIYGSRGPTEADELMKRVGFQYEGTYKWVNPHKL

[8] = target: T3, Protein RecA (Mycobacterium tuberculosis, UniProt P9WHJ3); assay: Fluorescence Cell-Free Homogeneous Dose Retest to Identify Inhibitors of RecA-Intein Splicing Activity. [Related pubchem assays (depositor defined):AID2097, AID2223, AID489010, AID492950]; format: functional
T3 sequence (P9WHJ3 whole entry): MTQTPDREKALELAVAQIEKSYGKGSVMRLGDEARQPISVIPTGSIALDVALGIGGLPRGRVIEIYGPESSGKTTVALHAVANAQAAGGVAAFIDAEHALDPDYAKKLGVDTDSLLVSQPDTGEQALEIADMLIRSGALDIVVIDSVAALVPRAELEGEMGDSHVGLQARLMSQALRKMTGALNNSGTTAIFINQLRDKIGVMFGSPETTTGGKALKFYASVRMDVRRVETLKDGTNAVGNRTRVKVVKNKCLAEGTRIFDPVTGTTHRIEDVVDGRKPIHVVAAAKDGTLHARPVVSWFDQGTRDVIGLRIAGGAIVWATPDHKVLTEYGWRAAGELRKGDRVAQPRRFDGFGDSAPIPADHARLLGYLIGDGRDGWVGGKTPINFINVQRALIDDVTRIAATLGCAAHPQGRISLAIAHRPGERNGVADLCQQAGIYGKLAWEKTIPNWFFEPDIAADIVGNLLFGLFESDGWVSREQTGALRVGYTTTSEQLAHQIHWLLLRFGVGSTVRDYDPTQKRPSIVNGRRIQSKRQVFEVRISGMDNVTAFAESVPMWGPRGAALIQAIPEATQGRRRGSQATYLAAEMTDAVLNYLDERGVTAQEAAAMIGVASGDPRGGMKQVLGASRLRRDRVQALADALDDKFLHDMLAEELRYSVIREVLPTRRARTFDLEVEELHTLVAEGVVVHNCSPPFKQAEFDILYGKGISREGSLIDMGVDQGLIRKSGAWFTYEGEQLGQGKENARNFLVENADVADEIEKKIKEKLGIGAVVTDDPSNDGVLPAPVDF

[9] = AlphaScreen signal interference compounds, dose response, artefact control for ARNT-TACC3 interaction inhibitor project, biochemical, luminescence, cherry-pick (AID 651705); format: functional;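 further: AlphaScreen bead proximity signal that flags compounds interfering with the detection technology; potency reflects signal decrease which marks the compound as an assay artifact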
[10] = target: T4, Rac GTPase-activating protein 1 (Homo sapiens, UniProt Q9H0H5); assay: MgcRacGAP GTPase-activating activity inhibitors, confirmation, biochemical, ADP Hunter fluorescence, primary and confirmatory (AID 624330); format: functional
T4 sequence (Q9H0H5 whole entry): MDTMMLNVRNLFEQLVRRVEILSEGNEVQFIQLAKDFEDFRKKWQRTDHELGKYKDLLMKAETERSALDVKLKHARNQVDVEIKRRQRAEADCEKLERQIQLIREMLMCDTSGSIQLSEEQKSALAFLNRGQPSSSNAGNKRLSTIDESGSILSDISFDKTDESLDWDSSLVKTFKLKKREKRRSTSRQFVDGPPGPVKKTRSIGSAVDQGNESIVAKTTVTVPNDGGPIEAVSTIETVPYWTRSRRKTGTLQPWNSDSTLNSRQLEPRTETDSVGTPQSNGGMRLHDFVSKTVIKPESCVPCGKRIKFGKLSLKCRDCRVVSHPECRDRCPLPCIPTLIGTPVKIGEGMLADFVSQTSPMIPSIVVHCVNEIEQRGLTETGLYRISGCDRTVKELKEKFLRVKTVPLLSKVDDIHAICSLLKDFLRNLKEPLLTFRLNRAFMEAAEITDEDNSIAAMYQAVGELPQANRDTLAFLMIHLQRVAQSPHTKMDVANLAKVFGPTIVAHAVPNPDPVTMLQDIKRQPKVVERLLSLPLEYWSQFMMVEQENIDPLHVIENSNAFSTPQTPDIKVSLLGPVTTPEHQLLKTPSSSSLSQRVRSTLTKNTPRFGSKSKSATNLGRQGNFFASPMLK

[11] = target: T5, Replicative DNA helicase DnaB (Mycobacterium tuberculosis, UniProt P9WMR3); assay: DnaB intein splicing inhibitors, dose response, biochemical, cell-free fluorescence (AID 449749); format: functional
T5 sequence (P9WMR3 whole entry): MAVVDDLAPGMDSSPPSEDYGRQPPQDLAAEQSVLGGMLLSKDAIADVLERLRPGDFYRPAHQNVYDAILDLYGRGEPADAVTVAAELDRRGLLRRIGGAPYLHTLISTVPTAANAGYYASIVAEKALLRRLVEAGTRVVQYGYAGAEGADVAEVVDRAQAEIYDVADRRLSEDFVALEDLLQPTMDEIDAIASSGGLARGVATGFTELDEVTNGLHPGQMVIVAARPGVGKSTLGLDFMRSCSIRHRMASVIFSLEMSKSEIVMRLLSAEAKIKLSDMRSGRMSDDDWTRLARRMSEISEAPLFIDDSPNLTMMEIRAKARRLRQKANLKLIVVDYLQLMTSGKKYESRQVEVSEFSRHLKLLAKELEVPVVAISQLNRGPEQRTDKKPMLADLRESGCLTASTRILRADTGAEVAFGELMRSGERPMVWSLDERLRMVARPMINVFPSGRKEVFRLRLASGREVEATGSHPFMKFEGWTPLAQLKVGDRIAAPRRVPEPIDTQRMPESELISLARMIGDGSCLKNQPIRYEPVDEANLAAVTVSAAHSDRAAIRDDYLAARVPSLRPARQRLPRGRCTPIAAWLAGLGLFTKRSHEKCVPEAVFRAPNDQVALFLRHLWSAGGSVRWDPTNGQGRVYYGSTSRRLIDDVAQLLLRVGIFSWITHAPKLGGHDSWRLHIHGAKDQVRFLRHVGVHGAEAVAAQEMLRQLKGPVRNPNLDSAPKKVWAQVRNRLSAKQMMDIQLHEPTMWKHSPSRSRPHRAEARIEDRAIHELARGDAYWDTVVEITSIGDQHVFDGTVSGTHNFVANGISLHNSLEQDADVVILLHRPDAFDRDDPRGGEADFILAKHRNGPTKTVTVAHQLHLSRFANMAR

[12] = target: Induced myeloid leukemia cell differentiation protein Mcl-1 (Homo sapiens, UniProt Q07820); format: functional
Induced myeloid leukemia cell differentiation protein Mcl-1, sequence (Q07820 whole entry): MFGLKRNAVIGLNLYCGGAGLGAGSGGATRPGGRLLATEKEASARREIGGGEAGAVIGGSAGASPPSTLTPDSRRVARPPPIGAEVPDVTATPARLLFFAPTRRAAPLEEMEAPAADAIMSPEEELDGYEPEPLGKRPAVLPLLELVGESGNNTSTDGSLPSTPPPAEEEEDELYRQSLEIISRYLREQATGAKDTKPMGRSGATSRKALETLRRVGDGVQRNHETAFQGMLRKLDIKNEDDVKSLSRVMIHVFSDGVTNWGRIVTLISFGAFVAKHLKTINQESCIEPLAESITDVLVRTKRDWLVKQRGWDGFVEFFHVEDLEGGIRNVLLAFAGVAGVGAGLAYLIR

[13] = cells; format: functional, cell-based
[14] = cells; format: functional, cell-based; remark: listed apart in the source
[15] = target: T6, Sentrin-specific protease 8 (Homo sapiens, UniProt Q96LD8); format: functional
T6 sequence (Q96LD8 whole entry): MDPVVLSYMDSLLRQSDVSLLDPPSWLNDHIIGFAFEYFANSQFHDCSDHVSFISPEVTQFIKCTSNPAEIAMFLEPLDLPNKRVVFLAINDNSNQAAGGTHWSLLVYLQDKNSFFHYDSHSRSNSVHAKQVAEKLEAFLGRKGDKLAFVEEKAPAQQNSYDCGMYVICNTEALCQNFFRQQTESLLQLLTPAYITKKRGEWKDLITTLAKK

[16] = target: T6, Sentrin-specific protease 8; format: functional; remark: listed apart in the source
[17] = Counterscreen for activators of the function of SWI/SNF related, matrix associated, actin dependent regulator of chromatin, subfamily a, member 2 (SMARCA2, BRM): Luminescence-based cell-based high throughput dose response assay to identify non-selective compounds using the VP16 reporter assay.; format: functional
[18] = target: SWI/SNF-related matrix-associated actin-dependent regulator of chromatin subfamily A member 2 (Homo sapiens, UniProt P51531); assay: Luminescence-based cell-based high throughput dose response assay to identify activators of the function of SWI/SNF related, matrix associated, actin dependent regulator of chromatin, subfamily a, member 2 (SMARCA2, BRM).; format: functional
SWI/SNF-related matrix-associated actin-dependent regulator of chromatin subfamily A member 2, sequence (P51531 whole entry): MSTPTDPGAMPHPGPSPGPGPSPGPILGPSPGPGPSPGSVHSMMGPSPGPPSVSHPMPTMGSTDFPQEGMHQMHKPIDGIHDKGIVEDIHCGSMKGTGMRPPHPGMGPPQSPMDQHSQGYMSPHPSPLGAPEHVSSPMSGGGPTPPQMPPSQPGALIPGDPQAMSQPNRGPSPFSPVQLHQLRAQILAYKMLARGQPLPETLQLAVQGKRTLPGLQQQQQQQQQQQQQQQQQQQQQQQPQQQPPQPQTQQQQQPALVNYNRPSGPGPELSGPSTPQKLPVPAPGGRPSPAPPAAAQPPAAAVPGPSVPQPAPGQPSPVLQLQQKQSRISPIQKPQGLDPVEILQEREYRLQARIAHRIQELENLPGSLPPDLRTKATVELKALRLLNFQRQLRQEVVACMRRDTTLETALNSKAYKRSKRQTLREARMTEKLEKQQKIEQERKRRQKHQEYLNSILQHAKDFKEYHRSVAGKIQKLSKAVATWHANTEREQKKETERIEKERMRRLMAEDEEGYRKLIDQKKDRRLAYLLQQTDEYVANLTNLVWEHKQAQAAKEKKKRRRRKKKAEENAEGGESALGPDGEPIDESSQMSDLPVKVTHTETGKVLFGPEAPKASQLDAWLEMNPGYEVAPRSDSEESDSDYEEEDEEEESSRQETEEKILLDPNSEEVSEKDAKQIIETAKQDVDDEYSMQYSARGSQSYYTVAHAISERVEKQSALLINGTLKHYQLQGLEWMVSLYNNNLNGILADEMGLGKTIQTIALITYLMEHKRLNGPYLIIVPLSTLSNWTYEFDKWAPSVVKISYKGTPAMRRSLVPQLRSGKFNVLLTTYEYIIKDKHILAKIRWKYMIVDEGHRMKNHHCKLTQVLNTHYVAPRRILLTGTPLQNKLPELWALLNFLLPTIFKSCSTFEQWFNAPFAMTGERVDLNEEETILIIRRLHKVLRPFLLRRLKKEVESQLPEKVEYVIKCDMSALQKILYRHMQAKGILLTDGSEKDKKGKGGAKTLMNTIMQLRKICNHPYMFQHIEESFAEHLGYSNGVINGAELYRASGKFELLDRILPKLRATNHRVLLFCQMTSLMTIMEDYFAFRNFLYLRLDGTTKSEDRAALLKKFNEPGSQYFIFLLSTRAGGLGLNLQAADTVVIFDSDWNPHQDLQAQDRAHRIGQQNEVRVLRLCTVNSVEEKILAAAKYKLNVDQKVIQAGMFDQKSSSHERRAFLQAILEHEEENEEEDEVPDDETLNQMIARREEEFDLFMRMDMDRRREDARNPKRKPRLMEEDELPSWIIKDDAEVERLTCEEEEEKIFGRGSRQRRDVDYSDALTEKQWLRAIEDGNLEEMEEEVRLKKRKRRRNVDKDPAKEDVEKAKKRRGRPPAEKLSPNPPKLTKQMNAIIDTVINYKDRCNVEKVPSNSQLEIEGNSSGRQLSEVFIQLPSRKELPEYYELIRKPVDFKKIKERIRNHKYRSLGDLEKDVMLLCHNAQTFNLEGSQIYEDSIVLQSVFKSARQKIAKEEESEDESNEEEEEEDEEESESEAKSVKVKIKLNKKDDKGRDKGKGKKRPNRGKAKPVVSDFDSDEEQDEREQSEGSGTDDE

[19] = target: T7, Streptokinase A (Streptococcus pyogenes serotype M1, UniProt P10520); assay: S. pyogenes streptokinase expression inhibitors, potency, dose response, plasminogen activation absorbance, OD405 (AID 1914); format: functional, Streptococcus pyogenes M1 GAS;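 further: secreted streptokinase activity via plasminogen activation per viability signal from cell pellet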
T7 sequence (P10520 whole entry): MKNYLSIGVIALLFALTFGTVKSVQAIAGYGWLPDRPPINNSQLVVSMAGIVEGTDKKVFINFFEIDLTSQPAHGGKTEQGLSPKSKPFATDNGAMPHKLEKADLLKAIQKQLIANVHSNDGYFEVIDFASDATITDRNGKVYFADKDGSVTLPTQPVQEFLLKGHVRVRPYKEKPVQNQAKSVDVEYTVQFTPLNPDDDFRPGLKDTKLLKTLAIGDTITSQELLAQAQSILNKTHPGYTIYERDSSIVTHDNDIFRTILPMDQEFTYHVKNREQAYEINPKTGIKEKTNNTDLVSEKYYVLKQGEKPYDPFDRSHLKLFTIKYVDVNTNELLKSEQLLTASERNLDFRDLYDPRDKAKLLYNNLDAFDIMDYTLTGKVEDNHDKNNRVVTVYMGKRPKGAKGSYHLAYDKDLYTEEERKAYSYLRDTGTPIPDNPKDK

[20] = test system: Streptococcus; assay: Group A Streptococcus viability loss, dose response, counter-screen for streptokinase expression inhibitor project, luminescence, BacTiterGlo (AID 1915); format: functional, organism-based;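 further: potency for reduction of bacterial viability or growth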
[21] = target: SUMO-activating enzyme (Homo sapiens, UniProt Q9UBT2); assay: SUMOylation inhibitor hit validation, confirmation, SUMOylation inhibitor project, biochemical, AlphaScreen (AID 2018); format: functional
SUMO-activating enzyme, sequence (Q9UBE0 whole entry): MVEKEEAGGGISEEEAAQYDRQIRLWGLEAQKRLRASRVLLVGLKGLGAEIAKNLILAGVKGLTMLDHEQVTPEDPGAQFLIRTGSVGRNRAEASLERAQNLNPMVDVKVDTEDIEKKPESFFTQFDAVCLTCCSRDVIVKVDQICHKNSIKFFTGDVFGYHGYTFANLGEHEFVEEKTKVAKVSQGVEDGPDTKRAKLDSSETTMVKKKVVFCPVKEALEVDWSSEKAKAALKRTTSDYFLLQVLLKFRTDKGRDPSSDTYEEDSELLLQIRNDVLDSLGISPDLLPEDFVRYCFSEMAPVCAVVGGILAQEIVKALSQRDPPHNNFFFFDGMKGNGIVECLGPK
SUMO-activating enzyme, sequence (Q9UBT2 whole entry): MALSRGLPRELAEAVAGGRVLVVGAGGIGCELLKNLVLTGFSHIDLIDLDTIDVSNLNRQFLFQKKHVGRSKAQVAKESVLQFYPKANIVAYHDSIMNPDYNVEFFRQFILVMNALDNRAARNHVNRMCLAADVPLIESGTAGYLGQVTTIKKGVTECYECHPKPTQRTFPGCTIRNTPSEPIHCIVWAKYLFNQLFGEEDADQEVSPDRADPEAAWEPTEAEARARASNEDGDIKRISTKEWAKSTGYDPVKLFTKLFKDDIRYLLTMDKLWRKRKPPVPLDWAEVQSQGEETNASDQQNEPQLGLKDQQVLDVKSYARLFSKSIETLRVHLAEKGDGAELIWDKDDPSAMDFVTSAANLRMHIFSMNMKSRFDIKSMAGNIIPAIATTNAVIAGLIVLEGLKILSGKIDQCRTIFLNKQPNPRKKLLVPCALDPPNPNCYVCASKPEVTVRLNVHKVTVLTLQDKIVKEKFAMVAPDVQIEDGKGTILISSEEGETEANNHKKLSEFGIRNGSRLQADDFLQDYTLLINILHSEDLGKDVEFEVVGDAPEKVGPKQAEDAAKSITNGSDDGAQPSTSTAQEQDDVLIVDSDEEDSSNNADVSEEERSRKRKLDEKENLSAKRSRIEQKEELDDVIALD

T1 sequence (P63165 whole entry): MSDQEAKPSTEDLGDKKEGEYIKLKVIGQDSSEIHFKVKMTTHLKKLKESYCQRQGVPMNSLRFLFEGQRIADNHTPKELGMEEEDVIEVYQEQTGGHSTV

Compound: COc1ccc(CCNC(=O)c2cc3c(=O)n4cccc(C)c4nc3s2)cc1OC
- IC50 [1]: 100 µM (inactive)
- IC50 [2]: > 66.6 µM (inactive)

Compound: Cc1nc(-c2c(C(F)(F)F)noc2-c2ccc(O)cc2O)cs1
- IC50 [3]: > 20 µM (inactive)
- EC50 [4]: > 53 µM (inactive)
- IC50 [5]: 22.7 µM (active)
- AC50 [6]: 3.16 µM (inconclusive)

Compound: CCOC(=O)c1c(OCC)[nH]c2c1cc(O)c1ccccc12
- IC50 [7]: > 80 µM (inactive)
- EC50 [8]: 2.64 µM (active)
- AC50 [9]: 93 µM (active)
- IC50 [10]: 63.5 µM (active)
- AC50 [11]: > 380 µM (inconclusive)
- IC50 [12]: 0.935 µM (active)

Compound: COc1ccc(NC(S)=NCc2cccnc2)cc1
- EC50 [13]: > 350 µM (not active)
- IC50 [3]: 17.8 µM (active)
- EC50 [14]: > 350 µM (not active)

Compound: O=C(Nc1c(-c2ccc(Cl)cc2)n[nH]c1O)c1ccc(Br)cc1
- IC50 [15]: 34.1 µM (active)
- IC50 [16]: 48 µM (active)

Compound: COc1ccc(C2Nc3ccccc3C(=O)N2c2ccc(C)cc2)cc1COc1ccccn1 (stereo not drawn)
- EC50 [17]: > 91.1 µM (inactive)
- EC50 [18]: > 91.1 µM (inactive)

Compound: COc1cc(C(c2c(C)[nH][nH]c2=O)c2c(C)[nH][nH]c2=O)ccc1OS(=O)(=O)c1ccc(C)cc1
- EC50 [8]: 0.195 µM (active)
- IC50 [15]: 20.4 µM (active)
- IC50 [16]: 35.4 µM (active)
- AC50 [11]: 0.484 µM (active)

Compound: N#C/C(=C\c1ccc(/C=C(/C#N)c2nn(CCO)c(N)c2C#N)cc1)c1nn(CCO)c(N)c1C#N
- EC50 [13]: > 350 µM (not active)
- EC50 [19]: > 150 µM (not active)
- IC50 [1]: 2.85 µM (active)
- EC50 [14]: > 350 µM (not active)
- EC50 [20]: > 150 µM (not active)
- IC50 [2]: > 66.6 µM (inactive)

Compound: COC(=O)c1nc2n(n1)C(c1ccc([N+](=O)[O-])cc1)C(C(=O)Nc1ccc(Cl)cc1)=C(C)N2 (stereo not drawn)
- IC50 [21]: 32.4 µM (active)
- IC50 [3]: > 20 µM (inactive)
- EC50 [4]: > 53 µM (inactive)
- IC50 [5]: 17.8 µM (active)
